In ChEMBL document CHEMBL1201862, “PubChem BioAssay data set” (2004):
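Protocol summary: plate cells (96-well), add compound at 5 concentrations, incubate 48 h, interpolate endpoints linearly. Abbreviation: GI50, concentration required for 50% inhibition of growth.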 Calls of active or inactive are those of the source. No stated cut-off is given here; in the data, active = GI50 up to about 1.1 µM and inactive = higher.

How the values were obtained:
Assay in all cases: NCI tumour cell line growth inhibition, 48 h
SR = tested on: SR
OVCAR-3 = tested on: OVCAR-3
A549 = tested on: A549
HOP-62 = tested on: HOP-62
MOLT-4 = tested on: MOLT-4
MCF7 = tested on: MCF7
NCI-H460 = tested on: NCI-H460
SF-539 = tested on: SF-539
786-0 = tested on: 786-0
SK-MEL-2 = tested on: SK-MEL-2
Hs-578T = tested on: Hs-578T
HCT-116 = tested on: HCT-116
MDA-N = tested on: MDA-N
HCC 2998 = tested on: HCC 2998
CAKI-1 = tested on: CAKI-1
HL-60 = tested on: HL-60
KM12 = tested on: KM12
DLD-1 = tested on: DLD-1
DMS-114 = tested on: DMS-114

Structure (SMILES)	GI50 (SR)	GI50 (OVCAR-3)	GI50 (A549)	GI50 (HOP-62)	GI50 (MOLT-4)	GI50 (MCF7)	GI50 (NCI-H460)	GI50 (SF-539)	GI50 (786-0)	GI50 (SK-MEL-2)	GI50 (Hs-578T)	GI50 (HCT-116)	GI50 (MDA-N)	GI50 (HCC 2998)	GI50 (CAKI-1)	GI50 (HL-60)	GI50 (KM12)	GI50 (DLD-1)	GI50 (DMS-114)
CC1=NC(C)(C)[N+]([O-])=C1	0.001 µM (active)	> 10 µM (inactive)	> 10 µM (inactive)	> 10 µM (inactive)	> 10 µM (inactive)	> 10 µM (inactive)	> 10 µM (inactive)	> 10 µM (inactive)	> 10 µM (inactive)	> 10 µM (inactive)	> 10 µM (inactive)	> 10 µM (inactive)	> 10 µM (inactive)	> 10 µM (inactive)	> 10 µM (inactive)	> 10 µM (inactive)	> 10 µM (inactive)	–	–
Cc1occc1/C(S)=N\c1ccc(Cl)c(COC(C)(C)C)c1	17.6 µM (inactive)	15.1 µM (inactive)	19.3 µM (inactive)	18.3 µM (inactive)	14.4 µM (inactive)	17.1 µM (inactive)	17.2 µM (inactive)	16.8 µM (inactive)	16.3 µM (inactive)	15.8 µM (inactive)	20.2 µM (inactive)	17.9 µM (inactive)	16.1 µM (inactive)	18.2 µM (inactive)	17.8 µM (inactive)	19.4 µM (inactive)	16.7 µM (inactive)	–	–
Clc1ccc(C2ON=C(c3ccccc3)N2C23CC4CC(CC(C4)C2)C3)cc1 (centres undefined)	> 10 µM (inactive)	> 10 µM (inactive)	> 10 µM (inactive)	> 10 µM (inactive)	9.66 µM (inactive)	> 10 µM (inactive)	> 10 µM (inactive)	> 10 µM (inactive)	> 10 µM (inactive)	> 10 µM (inactive)	> 10 µM (inactive)	> 10 µM (inactive)	> 10 µM (inactive)	> 10 µM (inactive)	> 10 µM (inactive)	> 10 µM (inactive)	> 10 µM (inactive)	–	–
CN(Cc1cnc2nc(N)nc(N)c2n1)c1ccc(C(=O)NC(CCC(=O)NCCC(P(=O)(O)O)P(=O)(O)O)C(=O)O)cc1 (centres undefined)	3.17 µM (inactive)	37.2 µM (inactive)	11.6 µM (inactive)	52.6 µM (inactive)	6.5 µM (inactive)	5 µM (inactive)	4.35 µM (inactive)	10.3 µM (inactive)	6.11 µM (inactive)	> 49.5 µM (inactive)	> 100 µM (inactive)	3.67 µM (inactive)	8.55 µM (inactive)	71.4 µM (inactive)	> 25 µM (inactive)	4.12 µM (inactive)	6.38 µM (inactive)	–	–
O=C1c2ccccc2C(=O)N1CCn1nc(-c2ccccc2)cc(-c2ccccc2)c1=O	5.4 µM (inactive)	27.2 µM (inactive)	61.5 µM (inactive)	> 100 µM (inactive)	26.4 µM (inactive)	–	26.2 µM (inactive)	> 100 µM (inactive)	> 100 µM (inactive)	82 µM (inactive)	–	66.8 µM (inactive)	–	67.8 µM (inactive)	–	8.51 µM (inactive)	> 100 µM (inactive)	> 100 µM (inactive)	> 100 µM (inactive)
NCCN1C(=O)c2ccccc2C1c1ccc(Cl)cc1 (centres undefined)	> 100 µM (inactive)	> 100 µM (inactive)	> 100 µM (inactive)	> 100 µM (inactive)	> 100 µM (inactive)	> 100 µM (inactive)	> 100 µM (inactive)	> 100 µM (inactive)	> 100 µM (inactive)	> 100 µM (inactive)	> 100 µM (inactive)	> 100 µM (inactive)	> 100 µM (inactive)	> 100 µM (inactive)	> 100 µM (inactive)	> 100 µM (inactive)	> 100 µM (inactive)	–	–
COc1cccc(-c2cc(O)c3cccnc3n2)c1	0.0614 µM (active)	0.0571 µM (active)	0.102 µM (active)	0.104 µM (active)	0.221 µM (active)	0.488 µM (active)	0.1 µM (active)	0.102 µM (active)	0.165 µM (active)	> 100 µM (inactive)	0.092 µM (active)	0.0546 µM (active)	0.0159 µM (active)	0.251 µM (active)	0.0984 µM (active)	0.0261 µM (active)	0.0581 µM (active)	–	–
N=C1N(c2ccccc2)C(=S)/C(=N/c2ccccc2)N1c1ccccc1	2.58 µM (inactive)	2.28 µM (inactive)	19.7 µM (inactive)	19.3 µM (inactive)	1.29 µM (inactive)	1.84 µM (inactive)	11.5 µM (inactive)	12.4 µM (inactive)	9.68 µM (inactive)	5.89 µM (inactive)	10 µM (inactive)	2.53 µM (inactive)	2.45 µM (inactive)	15.3 µM (inactive)	14.4 µM (inactive)	3.12 µM (inactive)	14 µM (inactive)	–	–
